Our source for the IC50 values is ChEMBL document CHEMBL1127110, “Novel polyamide inducers of HL-60 cellular differentiation” (Bioorg Med Chem Lett, 1993).

A value given as a limit tells only on which side of the number the result lay.

For this assay, the system named is HL-60. Nature of the assay: The compound was evaluated in vitro for cytotoxicity against HL-60 cell lines. The conditions noted are these: Homo sapiens. It is filed as functional, cell-based.
In the case of `CC(=O)NCCNC(=O)CCNC(C)=O`, the IC50 is greater than 16 mM. With `CC(=O)NCCCCN(CCCNC(C)=O)C(C)=O`, the concentration for half-maximal inhibition (IC50) was greater than 16 mM. The same measure for `CC(=O)NCCCCCCNC(C)=O` [HEXAMETHYLENEBISACETAMIDE]: 4 mM; for `CC(=O)NCCCN(CCCCN(CCCNC(C)=O)C(C)=O)C(C)=O`: greater than 16 mM.

`CC(=O)NCCC(=O)NCCNC(=O)CCNC(C)=O` gave an IC50 of 6 mM.
